Experiments:
[1] = tested on: third stage larvae of Haemonchus contortus; assay: Haemonchus contortus L3 (HcL3) Assay; format: cell-based; conditions: 96 h, read-out: HcL3 Minimum Effective Dose (MED)
[2] = tested on: 4th stage larvae (L4) of Dirofilaria immitis; assay: Dirofilaria immitis, L4 Stage (DiL4) In Vitro Assay; format: cell-based; conditions: Dirofilaria immitis, 72 h, read-out: DiL4 Minimum Effective Dose (MED), approximately 72 hours incubation; L4 larvae assessed for survival or paralysis

Compound	minimal effective concentration [1] [µM]	minimal effective concentration [2] [µM]
Cc1nn(Cc2ccc(C[C@H]3OC(=O)[C@H](CC(C)C)N(C)C(=O)[C@@H](C)OC(=O)[C@H](CC(C)C)N(C)C(=O)[C@@H](Cc4ccc(Cn5nc(C)c(O)c5C)cc4)OC(=O)[C@H](CC(C)C)N(C)C(=O)[C@@H](C)OC(=O)[C@H](CC(C)C)N(C)C3=O)cc2)c(C)c1O [Example 1b-16, (3S,6R,9S,12R,15S,18R,21S,24R)-6,18-bis({4-[(4-hydroxy-3,5-dimethyl-1H-pyrazol-1-yl)methyl]phenyl}methyl)-4,10,12,16,22,24-hexamethyl-3,9,15,21-tetrakis(2-methylpropyl)-1,7,13,19-tetraoxa-4,10,16,22-tetraazacyclotetracosan-2,5,8,11,14,17,20,23-octaone]	1 to 10	0.0001 to 0.001
COCc1ccnn1Cc1ccc(C[C@H]2OC(=O)[C@H](CC(C)C)N(C)C(=O)[C@@H](C)OC(=O)[C@H](CC(C)C)N(C)C(=O)[C@@H](Cc3ccc(Cn4nccc4COC)cc3)OC(=O)[C@H](CC(C)C)N(C)C(=O)[C@@H](C)OC(=O)[C@H](CC(C)C)N(C)C2=O)cc1 [Example 1b-166, (3S,6R,9S,12R,15S,18R,21S,24R)-3,9,15,21-tetraisobutyl-6,18-bis(4-((5-(methoxymethyl)-1H-pyrazol-1-yl)methyl)benzyl)-4,10,12,16,22,24-hexamethyl-1,7,13,19-tetraoxa-4,10,16,22-tetraazacyclotetracosan-2,5,8,11,14,17,20,23-octaone]	1 to 10	≤ 0.0001
CC(C)C[C@H]1C(=O)O[C@H](Cc2ccc(C(C3CC3)n3cccn3)cc2)C(=O)N(C)[C@@H](CC(C)C)C(=O)O[C@H](C)C(=O)N(C)[C@@H](CC(C)C)C(=O)O[C@H](Cc2ccc(C(C3CC3)n3cccn3)cc2)C(=O)N(C)[C@@H](CC(C)C)C(=O)O[C@H](C)C(=O)N1C (stereo partly drawn) [Example 1c-4, (3S,6R,9S,12R,15S,18R,21S,24R)-6,18-bis(4-(cyclopropyl(1H-pyrazol-1-yl)methyl)benzyl)-3,9,15,21-tetraisobutyl-4,10,12,16,22,24-hexamethyl-1,7,13,19-tetraoxa-4,10,16,22-tetraazacyclotetracosan-2,5,8,11,14,17,20,23-octaone]	≤ 1	0.0001 to 0.001
CC(C)C[C@H]1C(=O)O[C@H](Cc2ccc(C(C)(C)n3cccn3)cc2)C(=O)N(C)[C@@H](CC(C)C)C(=O)O[C@H](C)C(=O)N(C)[C@@H](CC(C)C)C(=O)O[C@H](Cc2ccc(C(C)(C)n3cccn3)cc2)C(=O)N(C)[C@@H](CC(C)C)C(=O)O[C@H](C)C(=O)N1C [Example 1c-6, (3S,6R,9S,12R,15S,18R,21S,24R)-6,18-bis(4-(2-(1H-pyrazol-1-yl)propan-2-yl)benzyl)-3,9,15,21-tetraisobutyl-4,10,12,16,22,24-hexamethyl-1,7,13,19-tetraoxa-4,10,16,22-tetraazacyclotetracosan-2,5,8,11,14,17,20,23-octaone]	≤ 1	≤ 0.0001
CC(C)C[C@H]1C(=O)O[C@H](Cc2ccc(Cn3nc(C#N)cc3C#N)cc2)C(=O)N(C)[C@@H](CC(C)C)C(=O)O[C@H](C)C(=O)N(C)[C@@H](CC(C)C)C(=O)O[C@H](Cc2ccc(Cn3nc(C#N)cc3C#N)cc2)C(=O)N(C)[C@@H](CC(C)C)C(=O)O[C@H](C)C(=O)N1C [Example 1b-66, 1,1′-(((((2R,5S,8R,11S,14R,17S,20R,23S)-5,11,17,23-tetraisobutyl-4,8,10,16,20,22-hexamethyl-3,6,9,12,15,18,21,24-octaoxo-1,7,13,19-tetraoxa-4,10,16,22-tetraazacyclotetracosane-2,14-diyl)bis(methylene))bis(4,1-phenylene))bis(methylene))bis(1H-pyrazole-3,5-dicarbonitrile)]	≤ 1	≤ 0.0001
CCOc1ccn(Cc2ccc(C[C@H]3OC(=O)[C@H](CC(C)C)N(C)C(=O)[C@@H](C)OC(=O)[C@H](CC(C)C)N(C)C(=O)[C@@H](Cc4ccc(Cn5nccc5OCC)cc4)OC(=O)[C@H](CC(C)C)N(C)C(=O)[C@@H](C)OC(=O)[C@H](CC(C)C)N(C)C3=O)cc2)n1 [Example 1a-36, (3S,6R,9S,12R,15S,18R,21S,24R)-6-(4-((3-ethoxy-1H-pyrazol-1-yl)methyl)benzyl)-18-(4-((5-ethoxy-1H-pyrazol-1-yl)methyl)benzyl)-3,9,15,21-tetraisobutyl-4,10,12,16,22,24-hexamethyl-1,7,13,19-tetraoxa-4,10,16,22-tetraazacyclotetracosan-2,5,8,11,14,17,20,23-octaone]	1 to 10	0.0001 to 0.001
Cc1ccnn1Cc1ccc(C[C@H]2OC(=O)[C@H](CC(C)C)N(C)C(=O)[C@@H](C)OC(=O)[C@H](CC(C)C)N(C)C(=O)[C@@H](Cc3ccc(Cn4nccc4C)cc3)OC(=O)[C@H](CC(C)C)N(C)C(=O)[C@@H](C)OC(=O)[C@H](CC(C)C)N(C)C2=O)cc1 [Example 1b-160, (3S,6R,9S,12R,15S,18R,21S,24R)-3,9,15,21-tetraisobutyl-4,6,10,16,18,22-hexamethyl-12,24-bis(4-((5-methyl-1H-pyrazol-1-yl)methyl)benzyl)-1,7,13,19-tetraoxa-4,10,16,22-tetraazacyclotetracosan-2,5,8,11,14,17,20,23-octaone]	≤ 1	0.0001 to 0.001
CC(C)C[C@H]1C(=O)O[C@H](Cc2ccc(Cn3nccc3-c3ccccn3)cc2)C(=O)N(C)[C@@H](CC(C)C)C(=O)O[C@H](C)C(=O)N(C)[C@@H](CC(C)C)C(=O)O[C@H](Cc2ccc(Cn3nccc3-c3ccccn3)cc2)C(=O)N(C)[C@@H](CC(C)C)C(=O)O[C@H](C)C(=O)N1C [Example 1b-173, (3S,6R,9S,12R,15S,18R,21S,24R)-3,9,15,21-tetraisobutyl-4,6,10,16,18,22-hexamethyl-12,24-bis(4-((5-(pyridin-2-yl)-1H-pyrazol-1-yl)methyl)benzyl)-1,7,13,19-tetraoxa-4,10,16,22-tetraazacyclotetracosan-2,5,8,11,14,17,20,23-octaone]	≤ 1	0.0001 to 0.001
COC(C)c1ccnn1Cc1ccc(C[C@H]2OC(=O)[C@H](CC(C)C)N(C)C(=O)[C@@H](C)OC(=O)[C@H](CC(C)C)N(C)C(=O)[C@@H](Cc3ccc(Cn4nccc4C(C)OC)cc3)OC(=O)[C@H](CC(C)C)N(C)C(=O)[C@@H](C)OC(=O)[C@H](CC(C)C)N(C)C2=O)cc1 (stereo partly drawn) [Example 1b-212, (3S,6R,9S,12R,15S,18R,21S,24R)-3,9,15,21-tetraisobutyl-6,18-bis(4-((5-(1-methoxyethyl)-1H-pyrazol-1-yl)methyl)benzyl)-4,10,12,16,22,24-hexamethyl-1,7,13,19-tetraoxa-4,10,16,22-tetraazacyclotetracosan-2,5,8,11,14,17,20,23-octaone]	≤ 1	0.0001 to 0.001
CC(C)C[C@H]1C(=O)O[C@H](Cc2ccc(Cn3cccc3C(N)=O)cc2)C(=O)N(C)[C@@H](CC(C)C)C(=O)O[C@H](C)C(=O)N(C)[C@@H](CC(C)C)C(=O)O[C@H](Cc2ccc(Cn3cccc3C(N)=O)cc2)C(=O)N(C)[C@@H](CC(C)C)C(=O)O[C@H](C)C(=O)N1C [Example 9-32, 1-[[4-[[(2R,5S,8R,11 S,14R,17S,20R,23S)-14-[[4-[(2-carbamoylpyrrol-1-yl)methyl]phenyl]methyl]-5,11,17,23-tetraisobutyl-4,8,10,16,20,22-hexamethyl-3,6,9,12,15,18,21,24-octaoxo-1,7,13,19-tetraoxa-4,10,16,22-tetrazacyclotetracos-2-yl]methyl]phenyl]methyl]pyrrole-2-carboxamide]	≤ 1	0.0001 to 0.001
CC(C)C[C@H]1C(=O)O[C@H](Cc2ccc(Cn3ncnc3C3CCC3)cc2)C(=O)N(C)[C@@H](CC(C)C)C(=O)O[C@H](C)C(=O)N(C)[C@@H](CC(C)C)C(=O)O[C@H](Cc2ccc(Cn3ncnc3C3CCC3)cc2)C(=O)N(C)[C@@H](CC(C)C)C(=O)O[C@H](C)C(=O)N1C [Example 9-54, (3S,6R,9S,12R,15S,18R,21S,24R)-6,18-bis(4-((5-cyclobutyl-1H-1,2,4-triazol-1-yl)methyl)benzyl)-3,9,15,21-tetraisobutyl-4,10,12,16,22,24-hexamethyl-1,7,13,19-tetraoxa-4,10,16,22-tetraazacyclotetracosan-2,5,8,11,14,17,20,23-octaone]	1 to 10	0.001 to 0.01
CCOCc1ccnn1Cc1ccc(C[C@H]2OC(=O)[C@H](CC(C)C)N(C)C(=O)[C@@H](C)OC(=O)[C@H](CC(C)C)N(C)C(=O)[C@@H](Cc3ccc(Cn4nccc4COCC)cc3)OC(=O)[C@H](CC(C)C)N(C)C(=O)[C@@H](C)OC(=O)[C@H](CC(C)C)N(C)C2=O)cc1 [Example 1b-176, (3S,6R,9S,12R,15S,18R,21S,24R)-6,18-bis(4-((5-(ethoxymethyl)-1H-pyrazol-1-yl)methyl)benzyl)-3,9,15,21-tetraisobutyl-4,10,12,16,22,24-hexamethyl-1,7,13,19-tetraoxa-4,10,16,22-tetraazacyclotetracosan-2,5,8,11,14,17,20,23-octaone]	≤ 1	≤ 0.0001
CC(C)C[C@H]1C(=O)O[C@H](Cc2ccc(Cn3ccnc3Cl)cc2)C(=O)N(C)[C@@H](CC(C)C)C(=O)O[C@H](C)C(=O)N(C)[C@@H](CC(C)C)C(=O)O[C@H](Cc2ccc(Cn3ccnc3Cl)cc2)C(=O)N(C)[C@@H](CC(C)C)C(=O)O[C@H](C)C(=O)N1C [Example 6-9, (3S,6R,9S,12R,15S,18R,21S,24R)-6,18-bis(4-((2-chloro-1H-imidazol-1-yl)methyl)benzyl)-3,9,15,21-tetraisobutyl-4,10,12,16,22,24-hexamethyl-1,7,13,19-tetraoxa-4,10,16,22-tetraazacyclotetracosan-2,5,8,11,14,17,20,23-octaone]	1 to 10	≤ 0.0001

From patent US11331369B2, “Endoparasitic depsipeptides” (Zoetis Services LLC, priority 2017, dated 2022)
